Patent US10550103B2, “Dual inhibitors of PARP1 and CDK” (Accutar Biotechnology, priority 2017, dated 2020)
Like-named read-outs stand apart in the source and are kept apart here.

Key:
[1] = system: MDA-MB-231 cells; assay: MDA-MB-231 breast cancer cell viability assay; assay type: cell-based, human; conditions: increasing concentrations; FIG. 15B
Protocol: (§1) MCF7 is a breast cancer cell line isolated from a person. MDA-MB-231 is a cell line is an epithelial, human breast cancer cell line that was established from a pleural effusion of a person with a metastatic mammary adenocarcinomal. Cell assays were performed using increasing concentrations of C3 and cell viability was measured. Olaparib and palbocicilib were also used in the cell assays to compare the efficacy of C3 in decreasing cell viability of these breast cancer lines.

[2] = system: HCC1937 cells; assay: BRAC1 mutant triple negative breast cancer cell growth inhibition assay (Cell Titer Glo), HCC1937; assay type: cell-based
Protocol: (§2) HCC1937 cells and HCC1395 cells are both […], triple negative (ER, PR, HER2) breast cancer cell lines. The cells were maintained in RPMI1640 medium (Gibco A10491-01) supplemented with 10% FBS, and 1× Penicillin Streptomycin. The HCC1937 cells (ATCC® CRL-2336™) and HCC1395 cells (ATCC® CRL-2324™), respectively, were plated in 96 dark well plates at 0.4×10^4 cells/well.
(§3) Cell medium was replaced each day for 4 days.
(§4) To determine cell viability, the relative cell number was determined by the Cell Titer Glo reagent (Promega) according to the protocol. At each day of the assay, the 96 well plate and reagents were equilibrated at RT for 30 min. 100 μl of Cell Titer Glo reagent was added to each well. The contents of each well were mixed using a pipetter to induce cell lysis. The plate was allowed to incubate at RT for 30 min to stabilize the luminescent signal, and the luminescence was determined by a luminometer (Perkin Elmer EnSpire).

[3] = target: T1, PARP1 (Homo sapiens, UniProt P09874); assay: PARP inhibition assay (TREVIGEN kit, NAD fluorescence); assay type: biochemical; conditions: final PARP concentration 40 nM; inhibition curves FIG. 2A-2D
T1 construct: purchased TREVIGEN 4690-096-K
Protocol: The PARP inhibition assay was performed using a commercially available PARP inhibition assay kit (TREVIGEN, 4690-096-K).
A 1× buffer was prepared by diluting 10× buffer with dH2O.
The nicotinamide adenine dinucleotide (NAD) standards were prepared by diluting the NAD stock solution with the 1× buffer as provided in Table 2 below.
PARP1 inhibitors were prepared in 1× buffer at 50× final concentration. 1 μl of PARP inhibitors were added to the 96 well plate.
PARPminus (×20) and PARPplus (×40) solutions were prepared as provided below in Table 3.
The cycling mix(60×) was prepared as provided below in Table 4.
In the black 96 well plate provided with the kit, 25 μl of 1× buffer was added to wells A5 and A6. To wells B5 to G6, 25 μl of 2×NAD standards were added. To wells H1, H2, A7 to G12, 25 μl NAD2 μM were added. To wells A5 to H6, 1 μl DMSO were added.
The following stock solutions of olaparib and C3 were separately prepared: 500 nM, 2.5 μM, 5 μM, 25 μM, 50 μM, 0.5 mM, and 1 mM. […]
The 96 well plate was read with a fluorescent plate reader (544 nm excitation/590 nm emission filters). […]
The standards indicate that higher concentrations of NAD correspond to higher fluorescence. Because PARP1 consumes NAD, PARP1 inhibition was determined by fluorescence intensity.
Inhibition curves were prepared based on the fluorescence data. […]

[4] = system: MCF7 cells; assay: MCF7 breast cancer cell viability assay; assay type: cell-based, human; conditions: FIG. 15A
Protocol: as §1

[5] = system: HCC1395 cells; assay: BRAC1 mutant triple negative breast cancer cell growth inhibition assay (Cell Titer Glo), HCC1395; assay type: cell-based
Protocol: as §2, §3, §4

[6] = system: more than 480 kinase assays (403 non-mutant kinases); assay: Kinase selectivity, DiscoverX KINOMEscan competition binding
Protocol: A kinase selectivity assay was performed with C3 using DiscoverX KINOMEscan™ (www.discoverx.com/, which is herein incorporated by reference in its entirety for all purposes). The KINOMEscan platform employs active site-directed competition binding assay to quantitatively measure interactions between test compounds (e.g., C3) and more than 480 kinase assays including clinically relevant mutants, lipid, atypical, and pathogen kinases, plus a growing panel of activation-state specific assays.
The data was interpreted using three selectivity score types (e.g., S(35); S(10); and S(1)) in order to provide a broad kinase selectivity picture (e.g., a selectivity score) of C3. The selectivity score was calculated using % Ctrl as a potency threshold (below) and provides a quantitative method of describing compound selectivity to facilitate comparison of different compounds. The three selectivity score types used to interpret the data are summarized below: S=Number of hits/Number of assays S(35)=(number of non-mutant kinases with % Ctrl<35)/(number of non-mutant kinases tested) S(10)=(number of non-mutant kinases with % Ctrl<10)/(number of non-mutant kinases tested) S(1)=(number of non-mutant kinases with % Ctrl<1)/(number of non-mutant kinases tested)

[7] = Pharmacokinetics in female BALB/c mice; assay type: in vivo; conditions: plasma; for MRT last: read-out: MRT(0-t)
Protocol: Pharmacokinetic parameters of the of C3 were measured after a single intraperitoneal injection (IP) of 10 mg/kg, or oral administration (PO) of 50 mg/kg in female BALB/c mice. Pharmacokinetic parameters measured include: elimination half-life (t1/2), time to reach maximum blood plasma concentration (Tmax); maximum blood plasma concentration (Cmax); area under the blood plasma concentration-time curve from time zero to the last detectable plasma concentration (AUC(0-t)); area under the blood plasma concentration-time curve from time zero to infinity (AUC(0-∞)); the mean residence time of the drug in the body from time zero to the last detectable plasma concentration (MRT(0-t)); apparent volume of distribution during terminal phase (Vz); and apparent total body clearance of the drug from plasma (CL).

[8] = system: MCF/E2 xenograft tumor; assay: MCF/E2 xenograft tumor mouse model, tumor volume; assay type: in vivo; conditions: 50 mg/kg P.O. QD for 2 weeks; FIG. 14A
Protocol: (§5) A MCF/E2 xenograft tumor mouse model was used to evaluate the efficacy of C3 in the treatment of breast cancer. 50 mg/kg of C3 was administered, P.O., once daily (QD) for 2 weeks. Data was compared to a vehicle control.

[9] = MCF/E2 xenograft tumor mouse model, body weight; assay type: in vivo; conditions: 50 mg/kg P.O. QD for 2 weeks; FIG. 14B
Protocol: as §5

[10] = system: MB231 cells; assay: MB231 cell proliferation assay; assay type: cell-based, human; conditions: days 1-4; FIG. 8, 9
Protocol: A cell proliferation assay was performed with MB231 cells, which is a human breast cancer adenocarcinoma cell line expressing a mutant CDKN2A, treated with C3 or olaparib. Cell proliferation results at increasing concentrations of C3 and olaparib were measured at day 1 (FIG. 8A), day 2 (FIG. 8B), day 3 (FIG. 8C), and day 4 (FIG. 8D).

[11] = system: MCF7 cells; assay: MCF7 cell proliferation assay; assay type: cell-based, human; conditions: days 1-4; FIG. 6, 7
Protocol: A cell proliferation assay was performed with MCF7 cells, which is a human breast cancer adenocarcima cell line which expresses PARP1, to compare the inhibitor effect of C2 (Abemaciclib), C2 in combination with letrozole (1 μM), C3, and C3 in combination with letrozole (1 μM). Cell proliferation results at increasing concentrations of C2 and C3 were measured at day 1 (FIG. 6A), day 2 (FIG. 6B), day 3 (FIG. 6C), and day 4 (FIG. 6D).

[12] = % Ctrl<1, 403 non-mutant kinases, screening concentration 1000 nM
[13] = % Ctrl<10, 403 non-mutant kinases, screening concentration 1000 nM
[14] = % Ctrl<35, 403 non-mutant kinases, screening concentration 1000 nM

T1 sequence (P09874 whole entry): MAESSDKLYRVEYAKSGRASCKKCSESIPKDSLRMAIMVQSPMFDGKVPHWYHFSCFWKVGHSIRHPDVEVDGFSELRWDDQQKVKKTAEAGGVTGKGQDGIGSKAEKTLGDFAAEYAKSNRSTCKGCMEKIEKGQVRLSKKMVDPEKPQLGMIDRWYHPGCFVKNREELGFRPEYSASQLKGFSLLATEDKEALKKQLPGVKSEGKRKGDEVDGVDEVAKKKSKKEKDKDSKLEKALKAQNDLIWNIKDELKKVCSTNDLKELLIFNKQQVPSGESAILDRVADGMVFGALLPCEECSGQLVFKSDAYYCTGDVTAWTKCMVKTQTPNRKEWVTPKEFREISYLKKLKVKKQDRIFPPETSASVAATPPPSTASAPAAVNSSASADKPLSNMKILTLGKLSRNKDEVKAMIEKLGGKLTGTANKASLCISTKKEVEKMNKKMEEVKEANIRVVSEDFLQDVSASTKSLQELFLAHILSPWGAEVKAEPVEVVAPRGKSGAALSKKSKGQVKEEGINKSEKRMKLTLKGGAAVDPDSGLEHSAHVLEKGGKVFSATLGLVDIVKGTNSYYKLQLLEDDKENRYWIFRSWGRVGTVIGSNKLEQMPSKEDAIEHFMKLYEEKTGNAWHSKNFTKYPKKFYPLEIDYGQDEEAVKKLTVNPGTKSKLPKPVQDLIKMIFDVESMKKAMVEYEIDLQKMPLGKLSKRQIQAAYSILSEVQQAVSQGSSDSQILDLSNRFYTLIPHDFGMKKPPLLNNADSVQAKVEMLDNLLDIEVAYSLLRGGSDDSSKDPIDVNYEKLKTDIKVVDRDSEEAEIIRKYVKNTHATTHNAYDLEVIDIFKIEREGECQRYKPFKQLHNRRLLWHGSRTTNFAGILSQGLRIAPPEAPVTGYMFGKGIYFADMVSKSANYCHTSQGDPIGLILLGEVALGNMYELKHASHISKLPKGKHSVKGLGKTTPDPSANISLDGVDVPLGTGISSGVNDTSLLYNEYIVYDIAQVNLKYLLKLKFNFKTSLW

Cc1nc2c(F)cc(-c3nc(Nc4ccc(N5CCN(C(=O)c6cc(Cc7n[nH]c(=O)c8ccccc78)ccc6F)CC5)cn4)ncc3F)cc2n1C(C)C [Compound C3]
reduction of MDA-MB-231 cell viability (comparison in words) [1]: more effective in reducing cell viability of MDA-NIB-231 cell than olaparib and palbocicilib | viable HCC1937 cells ([2]; 10 μM, day 4, FIG. 11D): almost no HCC1937 cells were viable | PARP1 inhibition (comparison in words) [3]: superior to C2 (Abemaciclib) and similar to olaparib | reduction of MCF7 cell viability (comparison in words) ([4]; increasing concentrations): reduced cell viability of MCF7 cells at lower concentrations compared to both olaparib and palbocicilib | viable HCC1395 cells ([5]; 10 μM, day 4, FIG. 10D): almost no HCC1395 cells were viable | Number of Hits, S(1) [6, 12]: 11 | Selectivity Score S(1) [6, 12]: 0.027 | Number of Hits, S(10) [6, 13]: 50 | Selectivity Score S(10) [6, 13]: 0.124 | Number of Hits, S(35) [6, 14]: 86 | Selectivity Score S(35) [6, 14]: 0.213 | kinase selectivity (in words) ([6]; KINOMEscan, 1000 nM): relatively selective kinase, with similar kinase selectivity as Abemaciclib | AUC(0-t) ([7]; mouse, PO 50 mg/kg): 1700 ng·h/mL | Cmax ([7]; mouse, PO 50 mg/kg): 292 ng/mL | Tmax ([7]; mouse, PO 50 mg/kg): 4 h | MRT last ([7]; mouse, PO 50 mg/kg): 3.62 h | AUC(0-inf) ([7]; mouse, single IP 10 mg/kg): 2670 ng·h/mL | AUC(0-t) ([7]; mouse, single IP 10 mg/kg): 2520 ng·h/mL | Cmax ([7]; mouse, single IP 10 mg/kg): 284 ng/mL | Tmax ([7]; mouse, single IP 10 mg/kg): 0.25 h | half-life ([7]; mouse, single IP 10 mg/kg): 342 min | MRT last ([7]; mouse, single IP 10 mg/kg): 6.3 h | CL ([7]; single IP 10 mg/kg): 62.3432 mL/min/kg | Vz ([7]; single IP 10 mg/kg): 30758.32 mL/kg | change in tumor volume versus vehicle control [8]: able to limit tumor growth compared to the vehicle control | change in body weight versus vehicle control [9]: does not causes changes in body weight | inhibition of MB231 cell proliferation [10]: stronger inhibitor of cell proliferation of MB231 human breast cancer adenocarcinoma cells than olaparib | inhibition of MCF7 cell proliferation [11]: inhibitor of cell proliferation

O=C(c1cc(Cc2n[nH]c(=O)c3ccccc23)ccc1F)N1CCN(C(=O)C2CC2)CC1 [olaparib, reference compound]
viability at 10 µM ([2]; Homo sapiens, HCC1937, 96 h, day 4, FIG. 11D, read-out: viable HCC1937 cells): > 80% | concentration at which MCF7 cell viability was reduced to 0 [4]: did not reduce cell viability to 0% at the concentrations tested | viability at 10 µM ([5]; Homo sapiens, HCC1395, 96 h, day 4, FIG. 10D, read-out: viable HCC1395 cells): ~60%
